Laboratory results published in patent publication US7601494B2, “Method of screening candidate compounds for susceptibility to biliary excretion” (The University of North Carolina at Chapel Hill, priority 1999, dated 2009).
Entries after “also recorded” stand apart in the source; their conditions may differ. Like-named read-outs stand apart in the source and are kept apart here.

Key:
[1] = system: short-term cultured hepatocytes; assay: Cumulative uptake in 3-hr (short-term) cultured hepatocyte monolayers, standard vs Ca2+-free buffer; assay type: in vitro ADME, rat; conditions: for cumulative uptake in standard buffer compared to Ca2+-free buffer: 3-hr cultured hepatocytes
Procedure: Hepatocytes were isolated with a two-step perfusion method. Briefly, rats were anesthetized with ketamine and xylazine (60 and 12mg/kg i.p., respectively) prior to portal vein cannulation. The liver was perfused in situ with oxygenated Ca^2+-free Krebs-Henseleit bicarbonate buffer containing collagenase type 1 (0.5 mg/ml) for 10 min. The hepatic capsule was removed with forceps. The hepatocytes were released by shaking the liver gently in 100 ml DMEM.
The released cells were filtered through a sterile nylon mesh (70-μm). The hepatocyte suspensions were centrifuged at 50 xg for 3 min. The cell pellet was resuspended in 25 ml DMEM and an equal volume of 90% isotonic polyvinylpyrrolidone-coated silica colloid centrifugation medium (pH 7.4) sold under the registered trademark PERCOLL® by Pharmacia, Inc. of Piscataway, N.J. The resulting cell suspension was centrifuged at about 70 to about 150 xg for 5 min. The pellet was resuspended in 50 ml DMEM and the cell suspensions were combined into one tube followed by centrifugation at 50 xg for 3 min. Hepatocyte viability was determined by trypan blue exclusion. Only those hepatocyte preparations with viability greater than 90% were utilized for further studies.
Hepatocyte suspensions were prepared with DMEM containing 5% fetal calf serum, 1 μM dexamethasone and 4 mg/L insulin. Hepatocyte suspensions were added to the precoated dishes at a density of about 2-3×10^6 cells/60-mm dish. Approximately 1 hr after plating the cells, the medium was aspirated and 3-ml fresh DMEM was added. For transport studies, hepatocytes that had been seeded for 3-5 hr without collagen overlay were defined as 3-hr or short-term cultured hepatocytes.
(§1) Hepatocytes cultured in a collagen-sandwich configuration were incubated in 3 ml standard buffer or Ca^2+-free buffer at 37° C. for 10 min. After removing the incubation buffer, uptake was initiated by addition of 3 ml standard buffer containing substrate to each dish. After incubation for designated times, cumulative uptake was terminated by aspirating the incubation solution and rinsing 4 times with 3 ml ice-cold standard buffer to remove extracellular substrate. After washing, 2 ml of 1% Triton X-100 solution was added to culture dishes, and the cells were lysed by shaking the dish on a shaker for 20 min at room temperature. An aliquot (1 ml) of lysate was analyzed by liquid scintillation spectrometry. Bio-Rad DC Protein Assay Kit (Bio-Rad Laboratories, Hercules, Calif.) was used to determine the protein concentration in the culture extracts using bovine serum albumin as standard. […] All values for substrate uptake into cell monolayers were corrected for nonspecific binding to the collagen by subtracting the substrate uptake determined in the appropriate control dishes in the absence of cells as described previously.
(§2) Uptake data were normalized to the protein content and expressed as mean±SD from 3-4 separate preparations of hepatocytes. Statistical differences between mean values for the 10-min cumulative substrate uptake in the presence and absence of Ca^2+ were determined by the use of the well-known Student's t-test. A P value of <0.05 was considered significant.

[2] = system: sandwich-cultured hepatocytes; assay: Cumulative uptake, Biliary Excretion Index and in vitro biliary clearance in 96-hr sandwich-cultured hepatocytes; assay type: in vitro ADME, rat; conditions: for cumulative uptake in standard buffer compared to Ca2+-free buffer: 96-hr cultured hepatocytes; for Biliary Excretion Index: Equation 3
Procedure: To prepare sandwich-cultured hepatocytes, neutralized collagen solution (0.1 ml, about 1.5 to about 3.0 mg/ml, pH 7.4) was added to the monolayers 24 hr after the cells were seeded. […] Medium was changed on a daily basis until the fourth day after the cells were seeded. These hepatocytes were referred to as 96-hr or long-term cultured hepatocytes.
as §1, §2
Biliary excretion of substrates in the monolayers was quantitatively assessed by the Biliary Excretion Index based on Equation 3:
[formula] where Uptakestandard and Uptake Ca^2+-free represent the cumulative uptake of substrate over a 10-min interval in the hepatocyte monolayers pre-incubated in standard buffer and in Ca^2+-free buffer, respectively.
Biliary clearance in the sandwich-cultured hepatocytes, ClB(culture) (ml/min/kg per body weight), was calculated according to Equation 4:
[formula] where Timeincubation was 10 min and Concentrationmedium represented the initial substrate concentration in the incubation medium. In some embodiments, a biliary clearance value can be calculated as the ratio of the mass in the bile canaliculi and the area under the curve (AUC) in culture medium, wherein the AUC represents the integral of candidate compound (e.g. xenobiotic concentration) in the medium from time 0 to time T (time can be measure in any desired units, and is usually measured in minutes). Indeed, the term AUC can refer to the following equation: […]

[3] = In vivo biliary excretion and biliary clearance in rats (literature data, Equations 1 and 2); conditions: rat
Procedure: In vivo biliary clearance, ClB (ml/min/kg body weight), was calculated according to Equation 1:
[formula] where Amountbile(O-T) represents the amount of parent drug recovered in bile from 0 to time T when most drug was eliminated from the systemic circulation, and AUCO-T represents the area under the plasma concentration-time curve from 0 to time T (in minutes).
The in vivo intrinsic biliary clearance (ClBin, ml/min/kg body weight) was estimated according to Equation 2 based on the well-stirred model of hepatic disposition assuming biliary excretion is the predominant elimination pathway (Pang et al., J. Pharmacokinet. Biopharm. 5:625-653, 1977).
[formula] where Q represents rat hepatic plasma/blood flow, 40-70 ml/min/kg of body weight {(blood flow×(1-hematocrit)}; Pollack et al., J. Pharmacol. Exp. Ther. 18:197-202, (1989), and ClB represents biliary clearance for model compounds reported in the literature or calculated from Equation 1.
The five model substrates representing a diverse spectrum of biliary excretion properties were selected to examine the relationship between the percentage of the dose excreted in bile in vivo in rats and the Biliary Excretion Index in sandwich-cultured hepatocytes. Information regarding the percentage of the dose excreted in rat bile after i.v. administration was obtained from the literature.

[4] = cited from earlier work; for percentage of the dose excreted in rat bile: i.v. administration, in 1 hr, unchanged drug; for in vivo biliary clearance: rat, literature values
Mrp2 = assay: Immunoblot analysis of Mrp2 expression in siRNA-treated SCRH; assay type: cell-based, rat; conditions: 2 μg siRNA per well, 48 hr; for reduction in endogenous Mrp2 expression: vs siFL or non-transfected SCRH, average
Procedure: (§3) HepG2 cells were maintained in Dulbecco's modified Eagle's medium/F-12 plus 10% FBS. Rat hepatocytes were isolated from male Wistar rats (220-300g) by in situ collagenase perfusion (Annaert et al., Drug Metab Dispos 29:1277-1283, 2001). Cells were seeded at a density of 1.5×10^6 cells per well onto polystyrene 6-well plates pre-coated with rat tail type I collagen; a top layer of gelled collagen was overlaid 24 hr after plating. Rat hepatocyte cultures were maintained in Dulbecco's modified Eagle's medium supplemented with 0.1 μM dexamethasone and 0.1% ITS culture supplement (6.25 mg/mL insulin, 6.25 mg/mL transferrin, 6.25 μg/mL selenous acid, 5.35 mg/mL linoleic acid, and […]). Medium was changed every 24 hr.
(§4) HepG2 cells were seeded at a density of 2×10^5 cells per well onto 12-well plates 24 hr before transfection. A mixture of 100 ng firefly luciferase expression plasmid (PGL3-FL) and 100 ng Renilla luciferase expression plasmid (PRL-TK) and various amounts of firefly luciferase siRNA were used per well. Transfections of SCRH were performed at 20 hr after plating, unless specifically indicated. siRNA (2 μg unless specified) was used per well in 6-well plates. siRNA and DNA were formulated for transfection using […]™ transfection reaction kit (QIAGEN Inc. Valencia, Calif. USA). Briefly, siRNA was condensed in Enhancer EC at a ratio of 1:2 (μg of total RNA and/or DNA : μl of Enhancer), and formulated with TransMessenger at a ratio of 1:4 (μg of RNA and /or DNA: μl of TransMessenger) and then incubated with cells. For transfections of HepG2 cells, medium was changed after an overnight incubation with siRNA. For transfections of SCRH, cells were incubated with siRNA for 4 hr and then were overlaid with collagen. siRNA delivery into hepatocytes was more efficient before overlay of the top collagen layer. The effect of transfection was examined 48 hr later.
(§5) Cells were harvested 48 hr post transfection and lysed in 1% SDS, 1 mM EDTA plus COMPLETE™ protease inhibitor cocktail (Roche Diagnostics, Mannheim, Germany). The protein concentration of the clear cell lysate was determined with the BCA Protein Assay Reagent Kit (Pierce Biotech, Inc. Rockford, Ill.). […] of total protein per lane was resolved by electrophoresis on NuPAGE 4-12% Bis-Tris Gel (Invitrogen Life Technology, Carlsbad, Calif. USA) and were transferred onto polyvinylidone difluoride membranes. The following antibodies were used to probe the membranes: anti-Mrp2 (M2111-6, Alexis Biochemicals, San Diego, Calif. USA); anti-Mrp3 (kind gift from Dr. Yuichi Sugiyama); anti-Radixin (Chemicon International, Inc. Temecula, Calif. USA), anti-β-actin (MAB1501, Chemicon).

Mrp3 = assay: Immunoblot analysis of Mrp3 expression in siRNA-treated SCRH; assay type: cell-based, rat; conditions: immunoblot
Procedure: as §3, §4, §5

radixin = assay: Immunoblot analysis of radixin expression in siRNA-treated SCRH; assay type: cell-based, rat
Procedure: as §3
as §4, with “For transfections of SCRH, cells were incubated with siRNA for 4 hr and then were overlaid with collagen. siRNA delivery into hepatocytes was more efficient before overlay of the top collagen layer. The effect of transfection was examined 48 hr later.” left out
Cells were harvested 48 hr post transfection and lysed in 1% SDS, 1 mM EDTA plus COMPLETE™ protease inhibitor cocktail (Roche Diagnostics, Mannheim, Germany). The protein concentration of the clear cell lysate was determined with the BCA Protein Assay Reagent Kit (Pierce Biotech, Inc. Rockford, Ill.). […]

[5] = 96-hr sandwich-cultured hepatocytes, 10-min cumulative uptake

| Compound | cumulative uptake in standard buffer compared to Ca2+-free buffer [1] | cumulative uptake in standard buffer compared to Ca2+-free buffer [2] | percentage of the dose excreted in rat bile [4] | reduction in endogenous Mrp2 expression (Mrp2) [%] | expression level of Mrp3 (Mrp3) [% non-transfected control] | radixin expression level (radixin) [% non-transfected control] | other results |
| --- | --- | --- | --- | --- | --- | --- | --- |
| CC1(C)SSC(C)(C)[C@@H](NC(=O)[C@@H](N)Cc2ccc(O)cc2)C(=O)NCC(=O)N[C@@H](Cc2ccccc2)C(=O)N[C@H]1C(=O)O [[D-pen^2,5]enkephalin] | not significantly different | significantly higher | – | – | – | – | clearance ([3]; in vivo biliary clearance, calculated by Equation 1 from data of Chen and Pollack): 18.5 mL/min/kg; clearance ([3]; in vivo intrinsic biliary clearance, calculated from Equation 2 (well-stirred model)): ~34.4 mL/min/kg |
| CN(Cc1cnc2nc(N)nc(N)c2n1)c1ccc(C(=O)N[C@@H](CCC(=O)O)C(=O)O)cc1 [methotrexate] | not significantly different | significantly higher | 50-60% | – | – | – | in vitro biliary clearance ([2]; 96-hr sandwich-cultured hepatocytes, 10-min cumulative uptake, Equation 4): 4.1 ± 1.0 mL/min/kg; clearance ([3]; in vivo intrinsic biliary clearance): ~17.3 mL/min/kg; percentage of the dose excreted in rat bile ([4]; listed as Methotrexate): approximately 60%; in vivo biliary clearance [4]: 12.1 ml/min per kg body weight |
| O=C(O)c1ccccc1O [salicylate] | not significantly different | no effect | negligible | – | – | – | Biliary Excretion Index [2, 5]: approximately zero; also recorded: negligible; in vivo biliary clearance [4]: ~0 ml/min per kg body weight |
| inulin | – | – | negligible | – | – | – | cumulative uptake (of initial added substrate) ([1]; short-term cultured hepatocytes, all incubation times, 1 μM): less than 0.01%; Biliary Excretion Index [2, 5]: approximately zero; also recorded: negligible; cumulative uptake (of initial added substrate) ([2]; long-term cultured hepatocytes, all incubation times, 1 μM): less than 0.01% |
| siMrp2AB1: siRNA targeting rat Mrp2, GGCUAUAUCUGUGCAAUCCUA (SEQ ID NO: 3), nucleotides 1158-1178 of Mrp2 cDNA (listed as RNA, chemistry not given here) | – | – | – | 50 | 89±11 | 95±17 | maximum reduction in endogenous Mrp2 expression (Mrp2): 79% |
| siMrp2AB2: siRNA targeting rat Mrp2, GGCUAGGAAGCAGUACACCAU (SEQ ID NO: 4) (listed as RNA, chemistry not given here) | – | – | – | 40±20 | 96±15 | 100±8 | – |
| siMrp2AB3: siRNA targeting rat Mrp2, GGCAGUAGGGUGGUGGUCCAU (SEQ ID NO: 5) (listed as RNA, chemistry not given here) | – | – | – | 26±18 | 86±11 | 103±7 | – |
